# Entries after “also recorded” stand apart in the source; their conditions may differ.
# Columns and labels:
# MC3T3-E1 cells = experiment: Quantification of mineralization (Alizarin Red) in MC3T3-E1 cells; assay type: cell-based, mouse; conditions: PEP12 at 300 and 1000 ng/ml; 21 days; absorbance 405 nm
# Description: Each time point was processed in three technical replicates. The medium was changed every two days.
# Cells were washed with PBS and fixed with 95% ice-cold ethanol for 30 min at 4° C. for staining. After washing with distilled water, cells were stained with Alizarin Red staining (1% Alizarin Red S (Sigma)), washed three times with distilled water to remove unbound staining and air-dried. Quantification of the staining was performed by dissolving the mineral content in 800 μl of 10% acetic acid for 30 minutes. Then, the wells were scraped, the content of each well was harvested in a separate tube and vortexed for 30 seconds. Each tube was heated at 85° C. for 10 minutes, then put on ice for 5 minutes. Finally, tubes were centriguated at 13000 rpm for 15 minutes, the liquid phase was harvested and mixed with 100 μl of 10% ammonium hydroxide. Absorbance was measured at 405 nm with a spectrophotometer (Varioskan Flash, Thermo Fisher Scientific).
# The mineralization level was evaluated by a biochemical assay as previously described after 21 days of differentiation culture. Results are representative of 3 experiments.
# alkaline phosphatase = conditions: 300 ng/ml, 1000 ng/ml; day 1 and day 21; vs CTL
# Description: MC3T3-E1 cells were differentiated during 21 days as mentioned previously. […] Treated cells were compared to cells without any peptide stimulation (CTL).
# We also assessed the specific alkaline phosphatase activity (μmol de para-nitrophenol/min/mg of protein). To that goal, we lysed the cells using 300 μL of a buffer containing 0.2 M Tris-Base, 1.6 mM MgCl2 pH 8.1 and 1% Triton X-100. Samples were then placed into tubes and put on ice for 30 min. During this time, we alternated periods of 30 sec vortex and 5 min on ice. Then, samples were sonicated, and centrifugated for 15 min at 13 000 g, 4° C. Supernatant was collected, and total protein concentration was evaluated using bicinchoninic acid assay.
# Alkaline phosphatase activity was measured by placing the harvested supernatants in para-nitrophenyl phosphate (pNPP) solution. The alkaline phosphatase will cleave this substrate and generate para-nitrophenol (pNP).
# A solution of 4 mg/mL of pNPP is prepared in buffer A (0.1 M glycine pH 10.5, 0.11% (m/v) Zinc acetate and 0.011% magnesium chloride (m/v)). […]
# Absorbance is read at 410 nm on a Varioskan Flash apparatus. Alkaline phosphatase activity is calculated based on the standard curve (equation A410=a×quantity(ρNP)+b) with the following formula: activity=((A(410 nm)−b)×reaction volume)/(a×sample volume×reaction time)
# Wnt/β-catenin pathway = experiment: Western blot of Wnt/β-catenin pathway activation in ATDC5 micromasses; assay type: cell-based, mouse; conditions: 300 ng/mL; day 21 and 28
# Description: (§1) Mouse chondrogenic ATDC5 cells (cartilage-specific chondrogenic strain) were cultured until confluent in maintenance medium containing 1:1 Dulbecco's modified Eagle's medium (DMEM): Ham's F-12 mix (Gibco) supplemented with 1% antibiotic (AB, Penicillin-Streptomycin, Gibco), 5% fetal bovine serum (FBS) (Gibco) and enriched with […] human transferrin (Sigma) and 30 nM sodium selenite (Sigma). Cells were trypsinized, washed and resuspended at 2.10^7 cells/mL in a chondrogenic medium made of maintenance medium enriched by 1× of ITS premix (resulting in 10 μg/mL insulin, 10 μg/mL human transferrin and 30 nM sodium selenite) (Life technologies). One droplet of cell suspension (10 μL) was placed at the center of each well of a 24-well plate. Cells were allowed to adhere for 2 h at 37° C., followed by addition of 500 μL chondrogenic medium supplemented. […] After 14 days, induction of hypertrophic differentiation and mineralization was induced by the mineralization medium made of α-MEM medium (Gibco) containing 1% AB, 5% FBS, 5 μg/ml human transferrin, 1× of ITS premix, 50 μg/ml ascorbic acid-2-phosphate (AA) (Sigma) and 10 mM β-glycerophosphate (BGP) (Sigma). […] Micromasses were collected at time points 1, 7, 14 21 and 28 days. Each time point was processed in three technical replicates. The medium was changed every other day. […]
# [1] = system: 7×TCF/LEF response elements (Super 8×TOPFlash reporter); experiment: Promoter activation assay, Super 8×TOPFlash luciferase reporter in ATDC5 cells stimulated with Wnt3a; assay type: cell-based, mouse; conditions: peptide at 300 ng/ml; 10 or 100 ng/mL recombinant Wnt3a; 24 h
# Description: Results were normalized by-cotransfecting each of the above plasmid with the tyrosine kinase-renilla luciferase plasmid (Promega). Transfections were carried out using the Dharmafect kb transfection reagent (Fisher Scientific). Briefly, reporter plasmids and transfection reagent were diluted in serum-free medium, and then the diluted Dharmafect kb was added to the plasmids for an incubation time of 10 minutes at room temperature. During that time, cells were rinsed with PBS and were placed in fresh maintenance medium. When incubation was over, the mixture of transfection reagent-plasmids was dispensed in each well. Stimulations (with Wnt3a and/or PEP16 and/or PEP16bis) were carried out the next day.
# ATDC5 micromasses [2] = experiment: qRT-PCR relative expression of genes of interest in ATDC5 micromass culture (chondrogenesis); assay type: cell-based, mouse; conditions: for MMP3 expression / YAP/TAZ target genes (CTGF) expression / articular chondrocyte extracellular matrix genes (type II collagen and aggrecan) expression: 300 ng/ml, differentiated 14 days with ITS, D14 vs CTL
# Description: (§2) Mouse chondrogenic ATDC5 cells (cartilage-specific chondrogenic strain) were cultured until confluent in maintenance medium containing 1:1 Dulbecco's modified Eagle's medium (DMEM): Ham's F-12 mix (Gibco) supplemented with 1% antibiotic (AB, Penicillin-Streptomycin, Gibco), 5% fetal bovine serum (FBS) (Gibco) and enriched with […] human transferrin (Sigma) and 30 nM sodium selenite (Sigma). Cells were trypsinized, washed and resuspended at 2.10^7 cells/mL in a chondrogenic medium made of maintenance medium enriched by 1× of ITS premix (resulting in 10 μg/mL insulin, 10 μg/mL human transferrin and 30 nM sodium selenite) (Life technologies). One droplet of cell suspension (10 μL) was placed at the center of each well of a 24-well plate. Cells were allowed to adhere for 2 h at 37° C., followed by addition of 500 μL chondrogenic medium supplemented. […] After 14 days, induction of hypertrophic differentiation and mineralization was induced by the mineralization medium made of α-MEM medium (Gibco) containing 1% AB, 5% FBS, 5 μg/ml human transferrin, 1× of ITS premix, 50 μg/ml ascorbic acid-2-phosphate (AA) (Sigma) and 10 mM β-glycerophosphate (BGP) (Sigma). […] Micromasses were collected at time points 1, 7, 14 21 and 28 days. Each time point was processed in three technical replicates. The medium was changed every other day. […] The genes of interest were articular chondrocyte markers (aggrecan, type 2 collagen (col2a1)), YAP/TAZ target genes (ctgf, ankrd) and pro-catabolic enzymes involved in the pathophysiology of OA (mmp3, mmp13).
# (§3) Total RNA was isolated using the Nucleospin RNA II kit (Macherey-Nagel) and reverse-transcribed using the MMLV reverse transcriptase (Thermo Fisher Scientific) following the manufacturers' instructions. The iTaq SYBR green qPCR master mix (BioRad) was used to assess the mRNA expression of target genes of interest. Primer sequences can be provided upon request. The following PCR conditions were used: 1 minute at 95° C., 40 cycles of 15 sec of denaturation at 95° C., followed by 1 minute of annealing-elongation at 60° C. Melting curve analysis was performed to determine the amplification of the specific product. Results were expressed using the comparative threshold method and were normalized to housekeeping gene PPIA (Peptidylprolyl Isomerase A) mRNA level for ATDC5 cells and MACs, or normalized to housekeeping gene S29 (ribosomal protein S29) mRNA level for MC3T3-E1 cells. The Via7 real-time PCR system (Thermo Fisher Scientific) was used for qRT-PCR measurements.
# (§4) ATDC5 cells were cultured as micromasses and differentiated during 14 days using ITS as mentioned previously. […] RNA was isolated and qPCR were performed for different target genes, i.e. type II collagen and aggrecan (articular chondrocyte extracellular matrix), CTGF (YAP/TAZ target genes, indicators of the pathway activity) and MMP3 (cartilage degrading enzyme increased during osteoarthritis) (FIG. 15). Alcian blue staining was performed on the micromasses cultures, and biochemical quantitation was performed as previously described (FIG. 16).
# as §4, with “gene, indicator” for “genes, indicators”, “17).” for “15).”, “18).” for “16).”
# ATDC5 micromasses [3] = experiment: Glycosaminoglycan/proteoglycan quantification (Alcian blue staining) in ATDC5 micromasses; assay type: cell-based, mouse; conditions: for proteoglycans deposition in the extracellular matrix (Alcian blue, absorbance 650 nm): 300 ng/ml, 14 days, vs control cells
# Description: as §2
# Micromasses were washed with PBS and fixed with 95% ice-cold ethanol for 30 min at 4° C. for staining. After washing with distilled water, micromasses were stained with Alcian Blue (0.1% Alcian Blue 8GX, (Sigma)), washed three times with distilled water to remove unbound staining and air-dried.
# [4] = system: mouse articular chondrocytes; experiment: qRT-PCR relative expression of genes of interest in mouse articular chondrocytes; assay type: cell-based; conditions: 300 ng/mL; 12 h of stimulation
# Description: Mouse articular chondrocyte (MACs) were isolated from femoral heads by enzymatic digestion of whole femoral head caps. Samples were washed three times in 1% AB/phosphate buffered saline (PBS) and incubated with 2 mg/ml pronase (Roche)/DMEM-F12 at 37° C. for 1 h at slow rotation 100 rpm followed by a 3 h incubation with 1.5 mg/ml collagenase B (Roche)/DMEM-F12 at 37° C. Cells were seeded at 1×10^6 cells/[…], and cultured for 7 to 14 days in growth medium DMEM-F12, containing 1% AB (Gibco), 10% FBS (Gibco) and 5% L-glutamine (Thermoscientific). Passage 1 cells were utilized for the experiments. The culture supernatants were then harvested in order to perform MMP13 enzymatic activity assay. The evaluation of the expression of genes of interest included articular chondrocyte markers (aggrecan, type 2 collagen (col2a1)), YAP/TAZ target genes (ankrd) and pro-catabolic enzyme involved in the pathophysiology of OA (mmp3).
# as §3
# CamKII pathway = experiment: Western blot of CamKII pathway activation in ATDC5 micromasses; assay type: cell-based, mouse; conditions: 300 ng/mL; day 21 and 28
# Description: as §1
# mouse model of OA = mouse model of OA (Zhang et al., 2020); cited from earlier work
# [5] = 300 ng/mL, day 1, 21, 28, vs non-treated control
substance,measurement,setting,value
ATQKTYFRNNYN (PEP12),extracellular matrix mineralization (biochemical quantitation),MC3T3-E1 cells,not able to increase extracellular matrix mineralization
same,specific alkaline phosphatase activity,alkaline phosphatase,not able to increase the alkaline phosphatase activity
"DRAGKKVKRWDMKARH (PEP16bis) [mutant of PEP16, L in position 3 and 14 changed to A]",Wnt/β-catenin pathway activation (active protein form over total protein form),Wnt/β-catenin pathway,reduced in the activation of the Wnt/β-catenin pathway
same,activity of the canonical Wnt pathway in the Super TOPFlash luciferase reporter system (Firefly/renilla ratio),[1],very similar properties (biological activity) to the initial sequence PEP16; also recorded: significantly reduce the activity
same,"expression of Ctgf, a target gene of the Hippo/YAP/TAZ pathway",ATDC5 micromasses [2]; [5],efficiently reduced the expression
same,relative expression level of aggrecan,ATDC5 micromasses [2]; [5],favoured the induction of the expression
same,relative expression level of col2a1 (type 2 collagen),ATDC5 micromasses [2]; [5],favoured the induction of the expression
same,relative expression level of mmp3,ATDC5 micromasses [2]; [5],efficiently reduced the expression
same,relative expression level of mmp13,ATDC5 micromasses [2]; [5],efficiently reduced the expression
same,glycosaminoglycans quantification (accumulation in the extracellular matrix),"ATDC5 micromasses [3]; 300 ng/mL, Alcian blue at day 28, absorbance 650 nm",significantly increased the accumulation of glycosaminoglycans
same,"expression of Ankrd, a target gene of the Hippo/YAP/TAZ pathway",[4],capable of reducing the expression
same,CamKII pathway activation (P-CamKII over total),CamKII pathway,increased the activation of the CamKII pathway
DRIGKKVKRWDMKIRH (PEP i) [PEP16 where L in position 3 and 14 were changed to an Isoleucine],MMP3 expression,ATDC5 micromasses [2],significant decrease
same,YAP/TAZ target genes (CTGF) expression,ATDC5 micromasses [2],significant decrease
same,articular chondrocyte extracellular matrix genes (type II collagen and aggrecan) expression,ATDC5 micromasses [2],significant increase
same,"proteoglycans deposition in the extracellular matrix (Alcian blue, absorbance 650 nm)",ATDC5 micromasses [3],significantly increase the proteoglycans deposition
DRSGKKVKRWDMKSRH (PEP s) [PEP16 where L in position 3 and 14 were changed to a Serine],MMP3 expression,ATDC5 micromasses [2],significant decrease
same,YAP/TAZ target genes (CTGF) expression,ATDC5 micromasses [2],significant decrease
same,articular chondrocyte extracellular matrix genes (type II collagen and aggrecan) expression,ATDC5 micromasses [2],significant increase
same,"proteoglycans deposition in the extracellular matrix (Alcian blue, absorbance 650 nm)",ATDC5 micromasses [3],significantly increase the proteoglycans deposition
Verteporfin,cartilage homeostasis,mouse model of OA,allowed preserving the cartilage homeostasis
